According to patent US20040019080A1, “Prevention and treatment of migraine and other recurrent headaches using leukotriene LTD4 receptor blocker drugs” (priority 1998, published 2004):
Entries after “also recorded” stand apart in the source; their conditions may differ. Read-outs that look alike come from different tables or passages of the source.

Legend:
LTE4 receptors = details: cited from earlier work
asthma patients [1] = details: cited from earlier work
LTD4 receptors = target: T1, LTD4 receptors (Homo sapiens, UniProt Q9Y271); details: cited from earlier work
T1 sequence (Q9Y271 1-337): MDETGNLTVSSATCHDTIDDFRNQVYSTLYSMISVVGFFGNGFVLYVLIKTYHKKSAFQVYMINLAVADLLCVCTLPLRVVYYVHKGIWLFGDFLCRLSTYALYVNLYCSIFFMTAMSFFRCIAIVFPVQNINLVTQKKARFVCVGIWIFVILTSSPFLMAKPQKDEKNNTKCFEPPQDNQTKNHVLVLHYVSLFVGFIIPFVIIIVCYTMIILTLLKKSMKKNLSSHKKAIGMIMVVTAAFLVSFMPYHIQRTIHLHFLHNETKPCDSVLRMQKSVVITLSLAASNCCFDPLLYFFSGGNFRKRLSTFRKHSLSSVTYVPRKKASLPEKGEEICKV

asthma patients [2] = details: cited from earlier work; for safety and tolerability in chronic use: used every day over a continuous period of years
patients with migraines = assay: Post-publication and unsolicited patient/physician reports, chronic and emergent migraine treatment; format: in vivo, human; details: unsolicited letters, comments, website posting
Source text: The Applicant herein (Sheftell) initially published their leukotriene-migraine findings in abstract form and as a poster session in mid-1999, at a conference of physicians who specialize in treating headaches. That presentation was summarized shortly thereafter in Family Practice News, a newsletter for physicians, and it was followed in February 2000 by a full article in a refereed journal (Sheftell et al, “Montelukast in the prophylaxis of migraine: “potential role for leukotriene modifiers,” Headache 40: 158-63 (2000)).

LTC4 receptors = details: cited from earlier work
[3] = test system: patients who suffered from migraine without aura; assay: Open-label clinical trial of daily montelukast in long-term migraine sufferers

Row | SMILES | blocking / activity at LTE4 receptors (LTE4 receptors) | asthma patients reporting headaches (asthma patients [1]; more than 4000 asthma patients tested) [%] | blocking / activity at LTD4 receptors (LTD4 receptors) | time of daily oral ingestion before noticeable effects in reducing the frequency of asthma attacks (asthma patients [2]; tablets, daily oral) | safety and tolerability in chronic use (asthma patients [2]) | reported outcome of chronic daily use for migraines (patients with migraines) | blocking of LTC4 receptors (LTC4 receptors) | asthma patients reporting headaches (asthma patients [1]; nearly 2000 asthma patients tested) [%] | adverse events reported by patients ([3]; 3-month treatment, 17 patients) | patients reporting a decrease in the number of moderate headaches ([3]; all reporting patients) [%] | number of mild headaches reported during treatment ([3]; mild category, baseline 1.53, mean per month (FIG. 2)) | mean number of moderate attacks per month during treatment ([3]; moderate category, baseline 5.5, not statistically significant) [attacks per month] | patients showing a greater than 60% reduction in the frequency of severe attacks ([3]; montelukast 10 mg tablets daily, 3-month treatment vs 2-month baseline, 17 patients) [%] | patients with reduction in frequency of severe attacks after dose escalation ([3]; of 4 patients escalated from 10 mg once daily to 10 mg twice daily) [patients] | patients with a 33% or greater reduction in the frequency of severe attacks ([3]; of the remaining 15 patients) [patients] | mean number of severe attacks per month during treatment ([3]; severe category, baseline 2.78, p<0.025) [attacks per month] | users reporting headaches as unwanted side effect (asthma patients [1]; zileuton 4 times daily at 600 mg, placebo 24.0%) [%]
1 | COc1cc(C(=O)NS(=O)(=O)c2ccccc2C)ccc1Cc1cn(C)c2ccc(NC(=O)OC3CCCC3)cc12 [zafirlukast] | appear to block; also recorded: some level of activity | 12.9 | appear to block; also recorded: some level of activity | about 4 weeks | generally safe, well-tolerated, and free of serious side effects | benefitted more from that treatment than from any other treatment | do not appear to block |  |  |  |  |  |  |  |  |  | 
2 | CC(C)(O)c1ccccc1CC[C@@H](SCC1(CC(=O)O)CC1)c1cccc(/C=C/c2ccc3ccc(Cl)cc3n2)c1 [montelukast] |  |  |  |  | generally safe, well-tolerated, and free of serious side effects |  |  | 18.4 | no adverse events were reported; also recorded: None of the patients reported any adverse effects | 70 | 2.02 | 4.68 | 41 | 4 | 13 | 1.31 | 
3 | CC(c1cc2ccccc2s1)N(O)C(N)=O (stereo not drawn) [zileuton] |  |  |  |  |  |  |  |  |  |  |  |  |  |  |  |  | 24.6
